The target in data set [1] is T1, Integrin alpha-V/beta-6 (Homo sapiens, UniProt P06756+P18564). In words: Binding affinity to alphav/beta6 integrin in human A375Pbeta6 cells at 100 nM after 15 mins by flow cytometric analysis relative to biotinylated A20FMDV2. It is filed as cell-based. On the technique in general: In flow cytometry, cells or beads pass a laser one at a time.
The target in data set [2] is T1, Integrin alpha-V/beta-6. Briefly: Binding affinity to alphav/beta6 integrin in human A375Pbeta6 cells assessed as drug internalization at 100 nM after 15 mins by flow cytometric analysis relative to biotinylated A20FMDV2. The class given is ADME, cell-based. Conditions: 0.25 h, 0.1 µM; call rule not given here.
Target sequence in this assay (P06756 31-889 limits assumed): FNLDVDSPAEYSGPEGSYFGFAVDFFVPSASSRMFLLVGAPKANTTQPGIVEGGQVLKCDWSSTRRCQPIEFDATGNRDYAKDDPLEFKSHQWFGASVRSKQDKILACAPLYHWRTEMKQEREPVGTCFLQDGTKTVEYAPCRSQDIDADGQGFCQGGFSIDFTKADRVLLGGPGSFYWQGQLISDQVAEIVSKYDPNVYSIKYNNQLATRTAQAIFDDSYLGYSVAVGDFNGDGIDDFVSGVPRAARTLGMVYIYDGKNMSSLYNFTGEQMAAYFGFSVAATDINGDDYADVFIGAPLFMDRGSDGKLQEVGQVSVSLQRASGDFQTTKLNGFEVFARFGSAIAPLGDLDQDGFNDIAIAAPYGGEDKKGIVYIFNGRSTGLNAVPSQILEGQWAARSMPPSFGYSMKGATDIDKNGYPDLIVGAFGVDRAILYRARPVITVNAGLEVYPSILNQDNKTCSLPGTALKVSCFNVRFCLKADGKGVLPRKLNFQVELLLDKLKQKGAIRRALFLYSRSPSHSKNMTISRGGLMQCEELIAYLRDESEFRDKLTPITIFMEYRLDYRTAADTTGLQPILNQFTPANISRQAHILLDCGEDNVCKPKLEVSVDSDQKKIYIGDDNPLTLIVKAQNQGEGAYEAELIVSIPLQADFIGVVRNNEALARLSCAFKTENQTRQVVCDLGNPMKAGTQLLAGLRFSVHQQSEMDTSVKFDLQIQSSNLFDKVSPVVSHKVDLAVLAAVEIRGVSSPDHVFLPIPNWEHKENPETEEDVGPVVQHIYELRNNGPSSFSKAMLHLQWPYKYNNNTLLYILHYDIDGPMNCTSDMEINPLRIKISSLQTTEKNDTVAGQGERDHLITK
Target sequence in this assay (P06756 891-1048 limits assumed): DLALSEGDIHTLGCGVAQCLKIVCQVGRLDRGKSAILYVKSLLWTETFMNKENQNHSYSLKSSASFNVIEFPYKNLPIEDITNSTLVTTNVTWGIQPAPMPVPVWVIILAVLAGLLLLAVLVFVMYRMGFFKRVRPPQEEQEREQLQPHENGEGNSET
Target sequence in this assay (P18564 22-788 limits assumed): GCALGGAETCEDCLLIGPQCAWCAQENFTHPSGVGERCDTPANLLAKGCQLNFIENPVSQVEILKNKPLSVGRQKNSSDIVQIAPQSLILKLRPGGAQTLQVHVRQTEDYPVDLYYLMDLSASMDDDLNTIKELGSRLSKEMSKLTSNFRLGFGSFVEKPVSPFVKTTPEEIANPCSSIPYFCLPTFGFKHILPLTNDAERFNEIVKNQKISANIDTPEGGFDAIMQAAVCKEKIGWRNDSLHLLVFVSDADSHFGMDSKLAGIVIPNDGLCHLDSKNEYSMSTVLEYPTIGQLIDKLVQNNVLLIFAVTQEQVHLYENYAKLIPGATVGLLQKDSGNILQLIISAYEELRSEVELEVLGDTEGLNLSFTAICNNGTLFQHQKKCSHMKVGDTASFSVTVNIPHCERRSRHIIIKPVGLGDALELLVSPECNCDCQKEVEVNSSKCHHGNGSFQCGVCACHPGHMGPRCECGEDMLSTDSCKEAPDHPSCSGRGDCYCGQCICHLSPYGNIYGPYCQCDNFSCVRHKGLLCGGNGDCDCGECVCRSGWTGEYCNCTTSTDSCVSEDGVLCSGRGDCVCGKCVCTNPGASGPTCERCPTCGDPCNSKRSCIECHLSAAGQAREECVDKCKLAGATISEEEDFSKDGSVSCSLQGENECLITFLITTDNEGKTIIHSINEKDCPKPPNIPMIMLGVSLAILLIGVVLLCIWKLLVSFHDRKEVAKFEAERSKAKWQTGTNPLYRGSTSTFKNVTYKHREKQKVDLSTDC
Data set [3] is described as follows: Drug uptake in human A375PPuro cells at 1000 nM after 15 mins by flow cytometric analysis. It is filed as ADME, cell-based. Conditions: 0.25 h, 1 µM.

Each structure is given as a SMILES string.

As to `CC(C)C[C@H](NC(=O)[C@H](CC(=O)O)NC(=O)CNC(=O)[C@H](CCCNC(=N)N)NC(=O)[C@H](CC(C)C)NC(=O)[C@H](CC(N)=O)NC(=O)[C@@H]1CCCN1C(=O)[C@@H](NC(=O)[C@H](CCCCNC(=O)CCCC[C@@H]1SC[C@@H]2NC(=O)N[C@@H]21)NC(=O)[C@@H](N)CC(N)=O)C(C)C)C(=O)N[C@@H](CCC(N)=O)C(=O)N[C@H](C(=O)N[C@@H](CC(C)C)C(=O)N[C@@H](C)C(=O)N[C@@H](CCC(N)=O)C(=O)N[C@@H](CCCCN)C(=O)N[C@H](C(=O)N[C@@H](C)C(=O)N[C@@H](CCCNC(=N)N)C(=O)N[C@@H](C(=O)O)[C@H](C)O)C(C)C)C(C)C`, the fold change (FC) is 0.53 at Integrin alpha-V/beta-6 [1] and 0.99 on Integrin alpha-V/beta-6 [2]. Also, in data set [3], the Drug uptake entry is listed as “Not Active”.
Regarding `CC(=O)N[C@@H](CC(N)=O)C(=O)N[C@@H](CCCCNC(=O)CCCC[C@@H]1SC[C@@H]2NC(=O)N[C@@H]21)C(=O)N[C@H](C(=O)N1CCC[C@H]1C(=O)N[C@@H](CC(N)=O)C(=O)N[C@@H](CC(C)C)C(=O)N[C@@H](CCCNC(=N)N)C(=O)NCC(=O)N[C@@H](CC(=O)O)C(=O)N[C@@H](CC(C)C)C(=O)N[C@@H](CCC(N)=O)C(=O)N[C@H](C(=O)N[C@@H](CC(C)C)C(=O)N[C@@H](C)C(=O)N[C@@H](CCC(N)=O)C(=O)N[C@@H](CCCCN)C(=O)N[C@H](C(=O)N[C@@H](C)C(=O)N[C@@H](CCCNC(=N)N)C(=O)N[C@H](C(N)=O)[C@@H](C)O)C(C)C)C(C)C)C(C)C`, the fold change (FC) was 1.25 on Integrin alpha-V/beta-6 [1] and 0.87 on Integrin alpha-V/beta-6 [2]. Further, the Drug uptake entry in data set [3] is given as “Not Active”.
`C=CC[C@H](NC(=O)[C@@H](NC(=O)[C@H](CCC(N)=O)NC(=O)[C@H](CC(C)C)NC(=O)[C@H](CC(=O)O)NC(=O)CNC(=O)[C@H](CCCNC(=N)N)NC(=O)[C@H](CC(C)C)NC(=O)[C@H](CC(N)=O)NC(=O)[C@@H]1CCCN1C(=O)[C@@H](NC(=O)[C@H](CCCCNC(=O)CCCC[C@@H]1SC[C@@H]2NC(=O)N[C@@H]21)NC(=O)[C@@H](N)CC(N)=O)C(C)C)C(C)C)C(=O)N[C@@H](C)C(=O)N[C@@H](CCC(N)=O)C(=O)N[C@@H](CCCCN)C(=O)N[C@H](C(=O)N[C@@H](C)C(=O)N[C@@H](CCCNC(=N)N)C(=O)N[C@H](C(=O)O)[C@@H](C)O)C(C)C`: the fold change (FC) at Integrin alpha-V/beta-6 [1] amounted to 0.58; at Integrin alpha-V/beta-6 [2] it was 0.82. For the same compound, the Drug uptake entry in data set [3] is listed as “Not Active”.
As to `CC(C)C[C@H](NC(=O)[C@H](CC(=O)O)NC(=O)CNC(=O)[C@H](CCCNC(=N)N)NC(=O)[C@H](CC(C)C)NC(=O)[C@H](CC(N)=O)NC(=O)[C@@H]1CCCN1C(=O)[C@@H](NC(=O)[C@H](CCCCNC(=O)CCCC[C@@H]1SC[C@@H]2NC(=O)N[C@@H]21)NC(=O)[C@@H](N)CC(N)=O)C(C)C)C(=O)N[C@@H](CCC(N)=O)C(=O)N[C@H](C(=O)N[C@@H](CC(C)C)C(=O)N[C@@H](C)C(=O)N[C@@H](CCC(N)=O)C(=O)N[C@@H](CCN)C(=O)N[C@H](C(=O)N[C@@H](C)C(=O)N[C@@H](CCCNC(=N)N)C(=O)N[C@H](C(=O)O)[C@@H](C)O)C(C)C)C(C)C`, the fold change (FC) on Integrin alpha-V/beta-6 [1] worked out at 1; at Integrin alpha-V/beta-6 [2], 0.86. Also, the Drug uptake entry in data set [3] is recorded as “Not Active”.
With `CC(C)CC[C@H](NC(=O)[C@@H](NC(=O)[C@H](CCC(N)=O)NC(=O)[C@H](CC(C)C)NC(=O)[C@H](CC(=O)O)NC(=O)CNC(=O)[C@H](CCCNC(=N)N)NC(=O)[C@H](CC(C)C)NC(=O)[C@H](CC(N)=O)NC(=O)[C@@H]1CCCN1C(=O)[C@@H](NC(=O)[C@H](CCCCNC(=O)CCCC[C@@H]1SC[C@@H]2NC(=O)N[C@@H]21)NC(=O)[C@@H](N)CC(N)=O)C(C)C)C(C)C)C(=O)N[C@@H](C)C(=O)N[C@@H](CCC(N)=O)C(=O)N[C@@H](CCCCN)C(=O)N[C@H](C(=O)N[C@@H](C)C(=O)N[C@@H](CCCNC(=N)N)C(=O)N[C@H](C(=O)O)[C@@H](C)O)C(C)C`, the fold change (FC) worked out at 0.45 at Integrin alpha-V/beta-6 [1] and 0.66 on Integrin alpha-V/beta-6 [2]. Besides, in data set [3], the Drug uptake result is “Not Active”.
With `CCC[C@H](NC(=O)[C@@H](NC(=O)[C@H](CCC(N)=O)NC(=O)[C@H](CC(C)C)NC(=O)[C@H](CC(=O)O)NC(=O)CNC(=O)[C@H](CCCNC(=N)N)NC(=O)[C@H](CC(C)C)NC(=O)[C@H](CC(N)=O)NC(=O)[C@@H]1CCCN1C(=O)[C@@H](NC(=O)[C@H](CCCCNC(=O)CCCC[C@@H]1SC[C@@H]2NC(=O)N[C@@H]21)NC(=O)[C@@H](N)CC(N)=O)C(C)C)C(C)C)C(=O)N[C@@H](C)C(=O)N[C@@H](CCC(N)=O)C(=O)N[C@@H](CCCCN)C(=O)N[C@H](C(=O)N[C@@H](C)C(=O)N[C@@H](CCCNC(=N)N)C(=O)N[C@H](C(=O)O)[C@@H](C)O)C(C)C`, the fold change (FC) on Integrin alpha-V/beta-6 [1] turned out to be 0.77; on Integrin alpha-V/beta-6 [2], 1.09. The Drug uptake entry in data set [3] was “Not Active”.
In the same order, the values of `CC(C)C[C@H](NC(=O)[C@H](CC(=O)O)NC(=O)CNC(=O)[C@H](CCCNC(=N)N)NC(=O)[C@H](CC(C)C)NC(=O)[C@H](CC(N)=O)NC(=O)[C@@H]1CCCN1C(=O)[C@@H](NC(=O)[C@H](CCCCNC(=O)CCCC[C@@H]1SC[C@@H]2NC(=O)N[C@@H]21)NC(=O)[C@@H](N)CC(N)=O)C(C)C)C(=O)N[C@@H](CCC(N)=O)C(=O)N[C@H](C(=O)N[C@@H](CC1CCCCC1)C(=O)N[C@@H](C)C(=O)N[C@@H](CCC(N)=O)C(=O)N[C@@H](CCCCN)C(=O)N[C@H](C(=O)N[C@@H](C)C(=O)N[C@@H](CCCNC(=N)N)C(=O)N[C@H](C(=O)O)[C@@H](C)O)C(C)C)C(C)C` are 0.62, 1.01 and “Not Active”.
In the same order, the values of `CC(C)C[C@H](NC(=O)[C@H](CC(=O)O)NC(=O)CNC(=O)[C@H](CCCNC(=N)N)NC(=O)[C@H](CC(C)C)NC(=O)[C@H](CC(N)=O)NC(=O)[C@@H]1CCCN1C(=O)[C@@H](NC(=O)[C@H](CCCCNC(=O)CCCC[C@@H]1SC[C@@H]2NC(=O)N[C@@H]21)NC(=O)[C@@H](N)CC(N)=O)C(C)C)C(=O)N[C@@H](CCC(N)=O)C(=O)N[C@H](C(=O)N[C@@H](CC(C)C)C(=O)N[C@@H](C)C(=O)N[C@@H](CCC(N)=O)C(=O)N[C@@H](CCCN)C(=O)N[C@H](C(=O)N[C@@H](C)C(=O)N[C@@H](CCCNC(=N)N)C(=O)N[C@H](C(=O)O)[C@@H](C)O)C(C)C)C(C)C` are 1.12, 0.86 and “Not Active”.
Consider `CC(C)C[C@H](NC(=O)[C@H](CC(=O)O)NC(=O)CNC(=O)[C@H](CCCNC(=N)N)NC(=O)[C@H](CC(C)C)NC(=O)[C@H](CC(N)=O)NC(=O)[C@@H]1CCCN1C(=O)[C@@H](NC(=O)[C@H](CCCCNC(=O)CCCC[C@@H]1SC[C@@H]2NC(=O)N[C@@H]21)NC(=O)[C@@H](N)CC(N)=O)C(C)C)C(=O)N[C@@H](CCC(N)=O)C(=O)N[C@H](C(=O)N[C@@H](CC(C)(C)C)C(=O)N[C@@H](C)C(=O)N[C@@H](CCC(N)=O)C(=O)N[C@@H](CCCCN)C(=O)N[C@H](C(=O)N[C@@H](C)C(=O)N[C@@H](CCCNC(=N)N)C(=O)N[C@H](C(=O)O)[C@@H](C)O)C(C)C)C(C)C`, for which the fold change (FC) amounted to 0.6 at Integrin alpha-V/beta-6 [1] and 1.03 at Integrin alpha-V/beta-6 [2]. In addition, the Drug uptake entry in data set [3] is recorded as “Not Active”.
In the same order, the values of `CC(=O)N(C(=O)CN(CCN(CCN(CC(=O)O)CC(=O)O)CC(=O)O)CC(=O)O)[C@@H](CC(N)=O)C(=O)N[C@@H](CCCCNC(=O)CCCC[C@@H]1SC[C@@H]2NC(=O)N[C@@H]21)C(=O)N[C@H](C(=O)N1CCC[C@H]1C(=O)N[C@@H](CC(N)=O)C(=O)N[C@@H](CC(C)C)C(=O)N[C@@H](CCCNC(=N)N)C(=O)NCC(=O)N[C@@H](CC(=O)O)C(=O)N[C@@H](CC(C)C)C(=O)N[C@@H](CCC(N)=O)C(=O)N[C@H](C(=O)N[C@@H](CC(C)C)C(=O)N[C@@H](C)C(=O)N[C@@H](CCC(N)=O)C(=O)N[C@@H](CCCCN)C(=O)N[C@H](C(=O)N[C@@H](C)C(=O)N[C@@H](CCCNC(=N)N)C(=O)N[C@H](C(=O)O)[C@@H](C)O)C(C)C)C(C)C)C(C)C` are 1.48, 1.05 and “Not Active”.
Consider `CC(C)C[C@H](NC(=O)[C@H](CC(=O)O)NC(=O)CNC(=O)[C@H](CCCNC(=N)N)NC(=O)[C@H](CC(C)C)NC(=O)[C@H](CC(N)=O)NC(=O)[C@@H]1CCCN1C(=O)[C@@H](NC(=O)[C@H](CCCCNC(=O)CCCC[C@@H]1SC[C@@H]2NC(=O)N[C@@H]21)NC(=O)[C@@H](N)CC(N)=O)C(C)C)C(=O)N[C@@H](CCC(N)=O)C(=O)N[C@H](C(=O)N[C@@H](CC(C)C)C(=O)N[C@@H](C)C(=O)N[C@@H](CCC(N)=O)C(=O)N[C@@H](CN)C(=O)N[C@H](C(=O)N[C@@H](C)C(=O)N[C@@H](CCCNC(=N)N)C(=O)N[C@H](C(=O)O)[C@@H](C)O)C(C)C)C(C)C`, for which the figures for the fold change (FC) on Integrin alpha-V/beta-6 [1] and on Integrin alpha-V/beta-6 [2] were 0.79 and 0.96, respectively. Further, the Drug uptake result in data set [3] is reported as “Not Active”.
In the same order, the values of `CC(C)C[C@H](NC(=O)[C@H](CC(=O)O)NC(=O)CNC(=O)[C@H](CCCNC(=N)N)NC(=O)[C@H](CC(C)C)NC(=O)[C@H](CC(N)=O)NC(=O)[C@@H]1CCCN1C(=O)[C@@H](NC(=O)[C@H](CCCCNC(=O)CCCC[C@@H]1SC[C@@H]2NC(=O)N[C@@H]21)NC(=O)[C@@H](N)CC(N)=O)C(C)C)C(=O)N[C@@H](CCC(N)=O)C(=O)N[C@H](C(=O)N[C@@H](CC(C)C)C(=O)N[C@@H](C)C(=O)N[C@@H](CCC(N)=O)C(=O)N[C@H](CCCCN)C(=O)N[C@H](C(=O)N[C@@H](C)C(=O)N[C@@H](CCCNC(=N)N)C(=O)N[C@H](C(=O)O)[C@@H](C)O)C(C)C)C(C)C` are 1.11, 0.78 and “Not Active”.
